According to PMC2248166, “Quantitative peptide binding motifs for 19 human and mouse MHC class I molecules derived using positional scanning combinatorial peptide libraries” (Immunome Research, 2008):

target: HLA A*3001 (Homo sapiens, UniProt P04439, D140H/D185E/E176W/F33S/G80R/H175R/K168Q/R138E/R41S); experiment: biochemical; type: binding

| Sequence | Normalized average relative binding affinity(ARB) |
| --- | --- |
| XXXXXTXXX [3064.0117] | 0.27 |
| XXXXXVXXX [3064.0118] | 0.22 |
| XXXXXWXXX [3064.0119] | 0.14 |
| XXXXXXAXX [3064.0121] | 0.12 |
| XXXXXXCXX [3064.0122] | 0.21 |
| XXXXXXDXX [3064.0123] | 0.014 |

target: HLA B*5301 (Homo sapiens, UniProt P01889, A329T/A93T/A95T/C349S/D201E/D98Y/E176V/E187L/E204Q/E69T/G107R/I218V/K202T/L105A/L119I/N104I/Q94N/R106L/R155S/R180L/S101N/S121R/S35A/S48A/T118I/V127L/V306I/V36M/Y140S/Y91F); experiment: not given; type: binding

| Sequence | Normalized average relative binding affinity(ARB) |
| --- | --- |
| XXXXXTXXX [3064.0117] | 0.30 |
| XXXXXVXXX [3064.0118] | 0.65 |
| XXXXXWXXX [3064.0119] | 0.36 |
| XXXXXXAXX [3064.0121] | 0.31 |
| XXXXXXCXX [3064.0122] | 0.17 |
| XXXXXXDXX [3064.0123] | 0.049 |

target: HLA B*5801 (Homo sapiens, UniProt P01889, A329T/C349S/D201E/D98Y/E176V/E187L/E204Q/E69T/G107R/I218V/I90N/K202T/L105A/L119I/N104I/N87E/Q89R/Q94S/R106L/R155S/R180L/R86G/S101N/S121R/S35A/S48A/T118I/V127L/V306I/V36M/Y140S/Y91M); experiment: not given; type: binding

| Sequence | Normalized average relative binding affinity(ARB) |
| --- | --- |
| XXXXXTXXX [3064.0117] | 0.72 |
| XXXXXVXXX [3064.0118] | 0.72 |
| XXXXXWXXX [3064.0119] | 0.21 |
| XXXXXXAXX [3064.0121] | 0.0045 |
| XXXXXXCXX [3064.0122] | 0.082 |
| XXXXXXDXX [3064.0123] | 0.066 |

target: H-2 K^d (Mus musculus, UniProt P01902); experiment: not given; type: binding
Sequence (P01887 21-119): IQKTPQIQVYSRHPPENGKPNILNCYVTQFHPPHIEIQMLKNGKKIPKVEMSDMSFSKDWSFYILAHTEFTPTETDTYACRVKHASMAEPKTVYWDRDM
Sequence (P01902 22-368): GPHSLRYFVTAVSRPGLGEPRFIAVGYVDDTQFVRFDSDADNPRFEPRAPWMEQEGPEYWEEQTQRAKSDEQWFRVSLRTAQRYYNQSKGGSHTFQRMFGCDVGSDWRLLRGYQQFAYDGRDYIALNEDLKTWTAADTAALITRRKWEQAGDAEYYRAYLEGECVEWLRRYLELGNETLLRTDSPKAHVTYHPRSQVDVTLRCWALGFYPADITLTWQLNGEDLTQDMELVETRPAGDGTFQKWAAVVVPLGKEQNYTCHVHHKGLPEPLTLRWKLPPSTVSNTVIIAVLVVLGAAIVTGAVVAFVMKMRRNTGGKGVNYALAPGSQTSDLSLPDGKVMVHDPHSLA

| Sequence | Normalized average relative binding affinity(ARB) |
| --- | --- |
| XXXXXTXXX [3064.0117] | 0.26 |
| XXXXXVXXX [3064.0118] | 0.32 |
| XXXXXWXXX [3064.0119] | 0.29 |
| XXXXXXAXX [3064.0121] | 0.17 |
| XXXXXXCXX [3064.0122] | 0.12 |
| XXXXXXDXX [3064.0123] | 0.051 |

target: HLA B*1501 (Homo sapiens, UniProt P01889, A329T/A93T/A95T/C349S/D201E/D98Y/E187L/E204Q/E69M/E70A/K202T/N87E/Q94N/R155S/R180W/S121R/S35A/S48A/V306I/V36M/Y140S/Y91S); experiment: biochemical; type: binding

| Sequence | Normalized average relative binding affinity(ARB) |
| --- | --- |
| XXXXXTXXX [3064.0117] | 0.55 |
| XXXXXVXXX [3064.0118] | 0.37 |
| XXXXXWXXX [3064.0119] | 0.36 |
| XXXXXXAXX [3064.0121] | 0.69 |
| XXXXXXCXX [3064.0122] | 0.78 |
| XXXXXXDXX [3064.0123] | 0.10 |

target: H-2 D^d (Mus musculus, UniProt P01900); experiment: not given; type: binding
Sequence (P01900 whole entry, looked up): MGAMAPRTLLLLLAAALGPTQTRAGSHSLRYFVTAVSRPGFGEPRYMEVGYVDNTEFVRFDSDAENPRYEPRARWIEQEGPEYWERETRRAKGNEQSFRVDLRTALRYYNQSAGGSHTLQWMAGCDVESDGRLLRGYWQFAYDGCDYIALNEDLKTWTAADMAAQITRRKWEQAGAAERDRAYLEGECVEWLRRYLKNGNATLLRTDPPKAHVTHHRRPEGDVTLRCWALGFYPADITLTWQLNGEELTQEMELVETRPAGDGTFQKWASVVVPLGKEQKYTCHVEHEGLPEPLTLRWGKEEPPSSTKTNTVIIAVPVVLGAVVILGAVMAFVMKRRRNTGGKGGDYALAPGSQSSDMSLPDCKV

| Sequence | Normalized average relative binding affinity(ARB) |
| --- | --- |
| XXXXXTXXX [3064.0117] | 1.0 |
| XXXXXVXXX [3064.0118] | 0.63 |
| XXXXXWXXX [3064.0119] | 0.77 |
| XXXXXXAXX [3064.0121] | 0.037 |
| XXXXXXCXX [3064.0122] | 0.048 |
| XXXXXXDXX [3064.0123] | 0.053 |

target: HLA B*5101 (Homo sapiens, UniProt P01889, A329T/A93T/A95T/C349S/D138N/D201E/D98Y/E187L/E204Q/E69T/G107R/I218V/K202T/L105A/L119W/N104I/Q94N/R106L/R155S/R180L/S101N/S121T/S35A/S48A/V306I/V36M/Y195H/Y91F); experiment: not given; type: binding

| Sequence | Normalized average relative binding affinity(ARB) |
| --- | --- |
| XXXXXTXXX [3064.0117] | 0.32 |
| XXXXXVXXX [3064.0118] | 0.20 |
| XXXXXWXXX [3064.0119] | 0.10 |
| XXXXXXAXX [3064.0121] | 0.24 |
| XXXXXXCXX [3064.0122] | 0.28 |
| XXXXXXDXX [3064.0123] | 0.15 |

target: HLA B*3501 (Homo sapiens, UniProt P01889, A329T/A93T/A95T/C349S/D201E/D98Y/E176V/E187L/E204Q/E69T/I218V/K202T/L119I/Q94N/R155S/R180L/S121R/S35A/S48A/T118I/V127L/V306I/V36M/Y140S/Y91F); experiment: not given; type: binding

| Sequence | Normalized average relative binding affinity(ARB) |
| --- | --- |
| XXXXXTXXX [3064.0117] | 0.16 |
| XXXXXVXXX [3064.0118] | 0.34 |
| XXXXXWXXX [3064.0119] | 0.99 |
| XXXXXXAXX [3064.0121] | 0.22 |
| XXXXXXCXX [3064.0122] | 0.18 |
| XXXXXXDXX [3064.0123] | 0.12 |

target: HLA A*6802 (Homo sapiens, UniProt P04439, A269V/D140Y/D185E/E176V/E277Q/E87N/F33Y/G231S/I121R/I166T/I218V/L180W/L300P/L318F/N151K/P208A/P217A/Q86R/R138H/R169H/S129P/T345S/V36M); experiment: not given; type: binding

| Sequence | Normalized average relative binding affinity(ARB) |
| --- | --- |
| XXXXXTXXX [3064.0117] | 0.84 |
| XXXXXVXXX [3064.0118] | 0.60 |
| XXXXXWXXX [3064.0119] | 0.44 |
| XXXXXXAXX [3064.0121] | 0.37 |
| XXXXXXCXX [3064.0122] | 0.11 |
| XXXXXXDXX [3064.0123] | 0.37 |

target: HLA B*5802 (Homo sapiens, UniProt P01889, A329T/C349S/D201E/D98Y/E176V/E187L/E204Q/E69T/G107R/I218V/I90N/K202T/L105A/N104I/N87E/Q89R/Q94S/R106L/R155S/R180L/R86G/S101N/S121W/S35A/S48A/V127L/V306I/V36M/Y140S/Y91M); experiment: not given; type: binding

| Sequence | Normalized average relative binding affinity(ARB) |
| --- | --- |
| XXXXXTXXX [3064.0117] | 0.17 |
| XXXXXVXXX [3064.0118] | 0.26 |
| XXXXXWXXX [3064.0119] | 0.29 |
| XXXXXXAXX [3064.0121] | 0.032 |
| XXXXXXCXX [3064.0122] | 0.024 |
| XXXXXXDXX [3064.0123] | 0.022 |

target: HLA B*0801 (Homo sapiens, UniProt P01889, A93T/A95T/D138N/E176V/E187T/K202T/Q94N/R180D/S35A/V36M/Y33D/Y91F); experiment: biochemical; type: binding

| Sequence | Normalized average relative binding affinity(ARB) |
| --- | --- |
| XXXXXTXXX [3064.0117] | 0.068 |
| XXXXXVXXX [3064.0118] | 0.077 |
| XXXXXWXXX [3064.0119] | 0.046 |
| XXXXXXAXX [3064.0121] | 0.44 |
| XXXXXXCXX [3064.0122] | 0.44 |
| XXXXXXDXX [3064.0123] | 0.072 |

target: HLA B*1503 (Homo sapiens, UniProt P01889, A329T/A93T/A95T/C349S/D201E/D98Y/E187L/E204Q/K202T/N87E/Q94N/R155S/R180L/S121R/S35A/V306I/V36M/Y140S/Y91S); experiment: biochemical; type: binding

| Sequence | Normalized average relative binding affinity(ARB) |
| --- | --- |
| XXXXXTXXX [3064.0117] | 0.79 |
| XXXXXVXXX [3064.0118] | 0.78 |
| XXXXXWXXX [3064.0119] | 0.37 |
| XXXXXXAXX [3064.0121] | 0.0014 |
| XXXXXXCXX [3064.0122] | 0.094 |
| XXXXXXDXX [3064.0123] | 0.051 |

target: H-2 D^b (Mus musculus, UniProt P01899); experiment: not given; type: binding
Sequence (P01887 21-119): as the sequence (P01887 21-119) above
Sequence (P01899 25-362): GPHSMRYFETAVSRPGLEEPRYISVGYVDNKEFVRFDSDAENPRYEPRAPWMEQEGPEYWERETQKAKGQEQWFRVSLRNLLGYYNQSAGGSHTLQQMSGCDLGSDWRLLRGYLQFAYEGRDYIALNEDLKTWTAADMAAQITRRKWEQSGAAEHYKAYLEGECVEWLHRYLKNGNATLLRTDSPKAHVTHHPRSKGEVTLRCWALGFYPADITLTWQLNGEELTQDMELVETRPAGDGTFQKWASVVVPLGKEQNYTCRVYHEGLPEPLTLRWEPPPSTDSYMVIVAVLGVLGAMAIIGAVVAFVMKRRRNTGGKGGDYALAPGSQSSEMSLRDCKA

| Sequence | Normalized average relative binding affinity(ARB) |
| --- | --- |
| XXXXXTXXX [3064.0117] | 0.55 |
| XXXXXVXXX [3064.0118] | 0.51 |
| XXXXXWXXX [3064.0119] | 1.0 |
| XXXXXXAXX [3064.0121] | 0.65 |
| XXXXXXCXX [3064.0122] | 0.28 |
| XXXXXXDXX [3064.0123] | 0.66 |

target: HLA B*5401 (Homo sapiens, UniProt P01889, A329T/C349S/D138N/D201E/E176V/E187T/E204Q/E69G/I76V/K202T/L119W/R155S/R180L/S121T/S35A/S48A/V127L/V306I/V36M/Y140L); experiment: not given; type: binding

| Sequence | Normalized average relative binding affinity(ARB) |
| --- | --- |
| XXXXXTXXX [3064.0117] | 0.32 |
| XXXXXVXXX [3064.0118] | 0.17 |
| XXXXXWXXX [3064.0119] | 0.18 |
| XXXXXXAXX [3064.0121] | 0.45 |
| XXXXXXCXX [3064.0122] | 0.16 |
| XXXXXXDXX [3064.0123] | 0.28 |

target: HLA A*3201 (Homo sapiens, UniProt P04439, A270S/D101S/D185E/E176V/E277Q/F133L/G103R/G107R/G231S/H175R/I121M/I218V/I322F/K168Q/L105A/L300P/L318F/M331R/P208A/P217A/Q94H/R106L/R138Q/S129P/T104I/T323A/T345S/V100E/V321M/V358M); experiment: biochemical; type: binding

| Sequence | Normalized average relative binding affinity(ARB) |
| --- | --- |
| XXXXXTXXX [3064.0117] | 0.77 |
| XXXXXVXXX [3064.0118] | 1.0 |
| XXXXXWXXX [3064.0119] | 0.26 |
| XXXXXXAXX [3064.0121] | 0.20 |
| XXXXXXCXX [3064.0122] | 0.11 |
| XXXXXXDXX [3064.0123] | 0.026 |

target: H-2 K^k (Mus musculus, UniProt P04223); experiment: not given; type: binding
Sequence (P01887 21-119): as the sequence (P01887 21-119) above
Sequence (P04223 22-369): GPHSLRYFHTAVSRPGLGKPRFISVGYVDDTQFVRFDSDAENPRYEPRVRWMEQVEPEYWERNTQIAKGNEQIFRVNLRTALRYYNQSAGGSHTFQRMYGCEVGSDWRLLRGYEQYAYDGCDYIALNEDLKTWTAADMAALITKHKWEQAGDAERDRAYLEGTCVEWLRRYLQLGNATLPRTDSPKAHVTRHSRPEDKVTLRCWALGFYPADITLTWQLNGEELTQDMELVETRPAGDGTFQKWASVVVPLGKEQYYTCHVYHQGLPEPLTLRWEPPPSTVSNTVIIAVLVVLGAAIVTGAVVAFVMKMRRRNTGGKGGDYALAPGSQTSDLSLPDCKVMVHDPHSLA

| Sequence | Normalized average relative binding affinity(ARB) |
| --- | --- |
| XXXXXTXXX [3064.0117] | 0.70 |
| XXXXXVXXX [3064.0118] | 0.59 |
| XXXXXWXXX [3064.0119] | 0.49 |
| XXXXXXAXX [3064.0121] | 0.12 |
| XXXXXXCXX [3064.0122] | 0.094 |
| XXXXXXDXX [3064.0123] | 0.030 |
